# Laboratory results: EP0603240B1, “SAFENING HERBICIDAL PYRAZOLYLSULFONYLUREAS” (priority 1991, dated 1993)
# Assays:
# Format in all cases: in vivo
# [1] = tested on: barnyardgrass (Echinochloa crusgalli); test: Example 10, Procedure II: Herbicide No. 1 + propachlor (No. 5) with antidotes
# Method: (§1) Containers were filled and compacted with a fumigated silt loam top soil to a depth of about 1.3 cm from the top of the container. A first container was designated as an untreated control, a second container was designated as a herbicide control, and a third container was designated as a herbicide + antidote test container. Each of the containers was seeded with a crop species. A measured amount of herbicide dispersed or dissolved in acetone was applied to a measured quantity of soil. To this same quantity of soil treated with herbicide, there was added a measured amount of antidote dispersed or dissolved in acetone. The quantity of soil treated with the herbicide and antidote was thoroughly mixed to incorporate the herbicide and antidote in the soil uniformly. The seed bed in the third container of soil was covered with the soil treated with the herbicide and antidote and the container was leveled. For each test series, the seed beds of the first and second containers were likewise covered by soil layers. the cover layer of the first container was not treated with herbicide or antidote.
# (§2) The containers were then placed on a bench in a greenhouse and sub-irrigated as required for the duration of the test. […] Plant response is measured in terms of percent injury. Antidote efficacy is indicated as the difference in plant injury by the herbicide(s) without the antidote and with the antidote.
# (§3) This procedure is the same as Procedure I, but modified in the manner that after incorporation of the chemicals (herbicide and antidote) the containers with the covered seedbed were treated with an initial overhead irrigation equivalent to 0.6 cm rainfall, then subsequently sub-irrigated as required on greenhouse benches.
# (§4) In the series of greenhouse tests described below, for routine screening purposes the herbicide/antidote compositions were tested in crop/weed combinations involving corn as the crop and either or both of the weeds barnyardgrass (Echinochloa crusgalli), a monocotyledonous weed, and velvetleaf (Abutilon theophrasti), a dicotyledonous weed. In the tables below, these weeds are indicated by the symbols "BYG" and "VL", respectively.
# (§5) In this test, the safening effect of various antidotes on the herbicidal combination of Herbicide No. 1 and another α-chloroacetanilide co-herbicide, propachlor, (Herbicide No. 5) was investigated. Propachlor is the active ingredient in the commercial herbicide RAMROD®. Procedure II was also used in this test as in the preceding example.
# [2] = tested on: velvetleaf (Abutilon theophrasti); test: as above
# Method: as §1, §2, §3, §4, §5
# [3] = tested on: barnyardgrass (Echinochloa crusgalli); test: Example 7, Procedure II: Herbicide No. 1 + metolachlor (No. 12) with antidotes
# Method: as §1, §2, §3, §4
# (§6) In this example, Procedure II described above was followed. The data from the tests in this example is shown in Table 6 and represents averages of duplicate replications.
# (§7) The tests in this example followed the same procedure and antidotes used in Example 6. However, Herbicide No. 12 (metolachlor) was used as the co-herbicide with Herbicide No. 1.
# [4] = tested on: velvetleaf (Abutilon theophrasti); test: as above
# Method: as §1, §2, §3, §4, §6, §7
# [5] = tested on: barnyardgrass (Echinochloa crusgalli); test: Example 21, Procedure II: Herbicide No. 1 + SUTAN PLUS (butylate + antidote) with antidotes
# Method: as §1, §2, §3, §4
# (§8) In this example, tests were conducted as in the preceding Examples 18-20, except here the co-herbicidal component was SUTAN® PLUS, a commercial product comprising as the active herbicidal ingredient the compound butylate (Herbicide No. 10) and an antidote […] (Antidote No. 1). Again, the antidotal compounds herein were Nos. 1, 2, 7, 13 and 15. Procedure II was used.
# [6] = tested on: velvetleaf (Abutilon theophrasti); test: as above
# Method: as §1, §2, §3, §4, §8
# [7] = tested on: barnyardgrass (Echinochloa crusgalli); test: Example 19, Procedure II: Herbicide No. 1 + ERADICANE EXTRA with added antidotes
# Method: as §1, §2, §3, §4
# (§9) In the test reported in this example, the herbicidal composition was similar to that used in Example 16 in that Herbicide No. 1 was combined with EPTC (Herbicide No. 4) as a co-herbicide and the antidotes included Nos. 1, 2, 7, 13 and 15. However, in this test the EPTC was introduced as a formulation of ERADICANE (EPTC + the antidote R-25788, i.e., Antidote No. 1) at an application rate of 8.96 kg/ha. Thus, in this test two antidotes were present, viz. R-25788 and one of the auxilliary antidotes, No. 2, 13 and 15.
# (§10) The test reported in this example was performed in the same manner and with the same antidotes used in Example 18, the only difference being the substitution of the commercial herbicidal product ERADICANE® EXTRA for ERADICANE®. ERADICANE EXTRA is a formulation containing both an antidote, i.e., R-29148 (Antidote No. 5 herein), and an extender, dietholate.
# [8] = tested on: velvetleaf (Abutilon theophrasti); test: as above
# Method: as §1, §2, §3, §4, §9, §10
# corn = test: Example 18, Procedure II: Herbicide No. 1 + ERADICANE (EPTC + R-25788) with auxiliary antidotes
# Method: as §1, §2, §3, §9
# Test procedures were those of Procedure II above.
# [9] = tested on: barnyardgrass (Echinochloa crusgalli); test: Example 6, Procedure II: Herbicide No. 1 + alachlor (No. 7) with antidotes
# Method: as §1, §2, §3, §4
# (§11) This example was designed to investigate the antidotal efficacy of a plurality of antidotal compounds against a composition comprising Herbicide No. 1 in combination with Herbicide No. 7 (alachlor). The antidotal compounds used herein were Nos. 1, 2, 7, 13 and 15.
# as §6
# [10] = tested on: velvetleaf (Abutilon theophrasti); test: as above
# Method: as §1, §2, §3, §4, §11, §6
# [11] = Herbicide No.1 0.14 kg/ha + Herbicide No.5 4.48 kg/ha, antidote rate 2.24 kg/ha
# [12] = Herbicide No.1 0.14 kg/ha + Herbicide No.5 4.48 kg/ha, antidote rate 8.96 kg/ha
# [13] = Herbicide No.1 0.56 kg/ha + Herbicide No.5 4.48 kg/ha, antidote rate 2.24 kg/ha
# [14] = Herbicide No.1 0.56 kg/ha + Herbicide No.5 4.48 kg/ha, antidote rate 8.96 kg/ha
# [15] = Herbicide No.1 0.14 + No.12 3.36 kg/ha + antidote 2.24 kg/ha
# [16] = Herbicide No.1 0.14 + No.12 3.36 kg/ha + antidote 8.96 kg/ha
# [17] = Herbicide No.1 0.56 + No.12 3.36 kg/ha + antidote 2.24 kg/ha
# [18] = Herbicide No.1 0.56 + No.12 3.36 kg/ha + antidote 8.96 kg/ha
# [19] = Herbicide No.1 0.56 kg/ha + SUTAN + 8.96 kg/ha, antidote 2.24 kg/ha
# [20] = Herbicide No.1 0.56 kg/ha + SUTAN + 8.96 kg/ha, antidote 8.96 kg/ha
# [21] = Herbicide No.1 1.12 kg/ha + SUTAN + 8.96 kg/ha, antidote 2.24 kg/ha
# [22] = Herbicide No.1 1.12 kg/ha + SUTAN + 8.96 kg/ha, antidote 8.96 kg/ha
# [23] = Herbicide No.1 0.56 kg/ha + ERADICANE EXTRA 8.96 kg/ha, antidote 2.24 kg/ha
# [24] = Herbicide No.1 0.56 kg/ha + ERADICANE EXTRA 8.96 kg/ha, antidote 8.96 kg/ha
# [25] = Herbicide No.1 1.12 kg/ha + ERADICANE EXTRA 8.96 kg/ha, antidote 2.24 kg/ha
# [26] = Herbicide No.1 1.12 kg/ha + ERADICANE EXTRA 8.96 kg/ha, antidote 8.96 kg/ha
# [27] = Herbicide No.1 0.56 kg/ha + ERADICANE 8.96 kg/ha, antidote 2.24 kg/ha
# [28] = Herbicide No.1 0.56 kg/ha + ERADICANE 8.96 kg/ha, antidote 8.96 kg/ha
# [29] = Herbicide No.1 1.12 kg/ha + ERADICANE 8.96 kg/ha, antidote 2.24 kg/ha
# [30] = Herbicide No.1 1.12 kg/ha + ERADICANE 8.96 kg/ha, antidote 8.96 kg/ha
# [31] = Herbicide No.1 0.14 + No.7 4.48 kg/ha + antidote 2.24 kg/ha
# [32] = Herbicide No.1 0.14 + No.7 4.48 kg/ha + antidote 8.96 kg/ha
# [33] = Herbicide No.1 0.56 + No.7 4.48 kg/ha + antidote 2.24 kg/ha
# [34] = Herbicide No.1 0.56 + No.7 4.48 kg/ha + antidote 8.96 kg/ha
structure (smiles),measurement,setting,value
C=CCN(CC=C)C(=O)C(Cl)Cl [compound 1],% Injury BYG,[1]; [11],99%
same,% Injury BYG,[1]; [12],99%
same,% Injury BYG,[1]; [13],98%
same,% Injury BYG,[1]; [14],99%
same,% Injury VL,[2]; [11],75%
same,% Injury VL,[2]; [12],70%
same,% Injury VL,[2]; [13],70%
same,% Injury VL,[2]; [14],80%
same,% Injury BYG,[3]; [15],100%
same,% Injury BYG,[3]; [16],100%
same,% Injury BYG,[3]; [17],100%
same,% Injury BYG,[3]; [18],100%
same,% Injury VL,[4]; [15],70%
same,% Injury VL,[4]; [16],75%
same,% Injury VL,[4]; [17],85%
same,% Injury VL,[4]; [18],80%
same,% Injury BYG,[5]; [19],0%
same,% Injury BYG,[5]; [20],25%
same,% Injury BYG,[5]; [21],10%
same,% Injury BYG,[5]; [22],35%
same,% Injury VL,[6]; [19],40%
same,% Injury VL,[6]; [20],65%
same,% Injury VL,[6]; [21],65%
same,% Injury VL,[6]; [22],60%
same,% Injury BYG,[7]; [23],90%
same,% Injury BYG,[7]; [24],90%
same,% Injury BYG,[7]; [25],90%
same,% Injury BYG,[7]; [26],95%
same,% Injury VL,[8]; [23],70%
same,% Injury VL,[8]; [24],75%
same,% Injury VL,[8]; [25],70%
same,% Injury VL,[8]; [26],85%
same,% Injury Corn,corn; [27],30%
same,% Injury Corn,corn; [28],25%
same,% Injury Corn,corn; [29],35%
same,% Injury Corn,corn; [30],25%
same,% Injury BYG,[9]; [31],100%
same,% Injury BYG,[9]; [32],100%
same,% Injury BYG,[9]; [33],100%
same,% Injury BYG,[9]; [34],100%
same,% Injury VL,[10]; [31],75%
same,% Injury VL,[10]; [32],80%
same,% Injury VL,[10]; [33],80%
same,% Injury VL,[10]; [34],85%
CC1(C)OC(c2ccco2)CN1C(=O)C(Cl)Cl (stereo not shown) [compound 15],% Injury BYG,[1]; [11],98%
same,% Injury BYG,[1]; [12],90%
same,% Injury BYG,[1]; [13],93%
same,% Injury BYG,[1]; [14],85%
same,% Injury VL,[2]; [11],70%
same,% Injury VL,[2]; [12],80%
same,% Injury VL,[2]; [13],80%
same,% Injury VL,[2]; [14],75%
same,% Injury BYG,[3]; [15],100%
same,% Injury BYG,[3]; [16],100%
same,% Injury BYG,[3]; [17],100%
same,% Injury BYG,[3]; [18],100%
same,% Injury VL,[4]; [15],70%
same,% Injury VL,[4]; [16],65%
same,% Injury VL,[4]; [17],75%
same,% Injury VL,[4]; [18],70%
same,% Injury BYG,[5]; [19],0%
same,% Injury BYG,[5]; [20],10%
same,% Injury BYG,[5]; [21],15%
same,% Injury BYG,[5]; [22],40%
same,% Injury VL,[6]; [19],50%
same,% Injury VL,[6]; [20],60%
same,% Injury VL,[6]; [21],65%
same,% Injury VL,[6]; [22],65%
same,% Injury BYG,[7]; [23],90%
same,% Injury BYG,[7]; [24],85%
same,% Injury BYG,[7]; [25],85%
same,% Injury BYG,[7]; [26],90%
same,% Injury VL,[8]; [23],70%
same,% Injury VL,[8]; [24],75%
same,% Injury VL,[8]; [25],85%
same,% Injury VL,[8]; [26],75%
same,% Injury Corn,corn; [27],25%
same,% Injury Corn,corn; [28],25%
same,% Injury Corn,corn; [29],15%
same,% Injury Corn,corn; [30],30%
same,% Injury BYG,[9]; [31],100%
same,% Injury BYG,[9]; [32],100%
same,% Injury BYG,[9]; [33],100%
same,% Injury BYG,[9]; [34],100%
same,% Injury VL,[10]; [31],80%
same,% Injury VL,[10]; [32],65%
same,% Injury VL,[10]; [33],90%
same,% Injury VL,[10]; [34],95%
